Consider two compounds from patent US6395906B1, “Intermediates to pesticidal 1-arylpyrazoles” (Rhone-Poulenc Inc., priority 1995, dated 2002).

Format in all cases: in vivo
Assay [1] concerns buckthorn aphid (Aphis nasturtii). In words: Buckthorn aphid (BA) foliar spray test. Conditions: nasturtium plants wet to runoff, 100 or 500 ppm; dead aphids counted after one day. As to the method:
(§1) For the tick, aphids, souther armyworm, tobacco budworm, house fly, Mexican bean beetle, American cockroach, cat flea, souther corn rootworm, western corn rootworm, black cutworm, and southern root-knot nematode, a solution or suspension was prepared by adding the test compound to a solution of dimethylformamide, acetone, emulsifiers which are alkylaryl polyether alcohols organic sulfonates, and water. The result was a 100 or 500 ppm concentration of the test compound.
Buckthorn aphid (BA) or cotton aphid (CA): Adult and nymphal stages of buckthorn or cotton aphid were reared on potted dwarf nasturtium or cotton plants, respectively. Plants infested with 100-150 aphids were wet to runoff with the 100 or 500 ppm test compound formulation. As an untreated control, a water-acetone-DMF-emulsifier solution containing no test compound was also applied to runoff to infested plants. The treated plants were stored for one day for buckthorn aphid and three days for cotton aphid, after which the dead aphids were counted.

In assay [2] the test system is Mexican bean beetle (Epilachna varivestis). Briefly: Mexican bean beetle (MBB) treated bean leaf test. Particulars: bean leaves, 100 or 500 ppm; second instar larvae, five days. As to the method:
as §1
Southern armyworm (SAW), Mexican bean beetle (MBB): Bean leaves were wet to runoff with the 100 or 500 ppm test compound formulation. As an untreated control, a water-acetone-DMF-emulsifier solution containing no test compound was also applied wet to runoff to bean leaves. Five or six randomly selected second instar southern armyworn larvae or Mexican bean bettle larvae were introduced into each plastic container with the dry treated leaves. The container was closed and held for five days. Larvae which were unable to move the length of the body, even upon stimulation by prodding, were considered dead.

The subject of assay [3] is tobacco budworm (Heliothis virescens). In words: Tobacco budworm (TBW) treated cotton leaf test. Conditions: cotton leaves, 100 ppm; second instar larvae, five days. The method, boiled down:
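Leaf-dip test: cotton leaves wetted to runoff with 100 ppm compound in DMF/acetone/emulsifier/water, dried, then offered to ten second-instar Heliothis virescens larvae in closed cups with moist wicks. Mortality scored after five days; larvae unable to move one body length on prodding counted dead; solvent-emulsifier control run alongside.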

Assay [4] relates to American cockroach (Periplaneta americana). In words: American cockroach (ACR) treated food pellet test. Particulars: food pellets with 500 ppm formulation; nymphs, contact and feeding mortality 1 and 5 days after infestation. Put shortly:
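Pet-food pellets treated with 500 ppm compound in DMF/acetone/emulsifier/water; solvent-only blank as control. Nymphs added after 48 h; contact and feeding mortality scored 1 and 5 days post-infestation.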

In assay [5] the test system is dog tick (Rhipicephalus sanguineus). In words: Dog tick (DT) treated filter paper contact test. Conditions: 500 ppm, adult ticks, contact mortality 14 days after infestation. The method, then:
as §1
(§2) Cat flea (CF), dog tick (DT): Filter papers were treated with an aliquot of the 500 ppm test formulation. As an untreated control, an aliquot of a water-acetone-DMF-emulsifier solution containing no test compound was applied in a similar manner. When dry, 2 treated filters were placed in a vial for the flea and another 2 filters in a vial for the tick. Five adult fleas were added to one vial and 5 adult ticks to the second vial. Contact mortality was assessed 1 day after infestation for the flea and 14 days after infestation for the tick.

Assay [6] deals with cat flea (Ctenocephalides felis). Briefly: Cat flea (CF) treated filter paper contact test. Particulars: 500 ppm, adult fleas, contact mortality 1 day after infestation. The method, then:
as §1, §2

Assay [7] has as its system western corn rootworm (Diabrotica virgifera virgifera). In words: Western corn rootworm (WCRW) soil test. Particulars: soil concentration 0.15 or 0.5 ppm; neonate larvae, mortality six days after infestation. The method, boiled down:
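Test formulation applied to dry sandy loam soil in a jar for 0.15 or 0.5 ppm soil concentration; solvent-only untreated control. After 24 h covered incubation, four germinated corn seedlings and ten neonate larvae added. Mortality assessed 6 days after infestation by Berlese funnel extraction.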

Turning to `CC(=O)c1c(S(=O)(=O)C(F)(F)F)c(C#N)nn1-c1c(Cl)cc(C(F)(F)F)cc1Cl` [Compound 1, 5-Acetyl-3-cyano-1-(2,6-dichloro-4-trifluoromethylphenyl)-4-trifluoromethylsulfonylpyrazole], the BA result in assay [1] is given as “+ (active against 1 or more insects described above up to 100% mortality. This activity is indicated by a “+”)”. The MBB result in assay [2] is given as “+ (active against 1 or more insects described above up to 100% mortality. This activity is indicated by a “+”)”. Also, the TBW entry in assay [3] was “+ (active against 1 or more insects described above up to 100% mortality. This activity is indicated by a “+”)”.
Take `CCOC(OCC)c1c(SC(F)(F)F)c(C#N)nn1-c1c(Cl)cc(C(F)(F)F)cc1Cl` [Compound 18, 3-Cyano-1-(2,6-dichloro-4-trifluoromethylphenyl)-5-diethoxymethyl-4-trifluoromethylthiopyrazole]: in assay [4], the ACR entry is given as “+ (active against 1 or more insects described above up to 100% mortality. This activity is indicated by a “+”)”. In addition, the DT result in assay [5] is given as “+ (active against 1 or more insects described above up to 100% mortality. This activity is indicated by a “+”)”. In assay [6], the CF result was “+ (active against 1 or more insects described above up to 100% mortality. This activity is indicated by a “+”)”. In addition, the WCRW entry in assay [7] is given as “+ (active against 1 or more insects described above up to 100% mortality. This activity is indicated by a “+”)”.
